In patent US20260274892A1, “MACROCYCLIC BROAD SPECTRUM ANTIBIOTICS” (RQx Pharmaceuticals, Inc., priority 2017, published 2026):

Key:
[1] = tested on: Escherichia coli ATCC 25922; experiment: Minimum inhibitory concentration (MIC), CLSI broth micro-dilution, E. coli; assay type: cell-based; details: Escherichia coli, ATCC25922, 22 h
Outline: (§1)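 Colonies grown 20 h at 35° C on Trypticase Soy agar (MRSA) or Luria agar (E. coli) were suspended in cation-adjusted Mueller Hinton broth with 0.002% Tween-80. Suspensions were added at OD600 0.0005 to 10-point twofold compound dilutions, then incubated 22 h at 35° C.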

[2] = tested on: Methicillin Resistant Staphylococcus aureus strain USA 200; experiment: Minimum inhibitory concentration (MIC), CLSI broth micro-dilution, S. aureus; assay type: cell-based; details: Staphylococcus aureus, MRSA / USA200, MRSA USA 200, cation adjusted Mueller Hinton Broth + 0.002% Tween-80, 35° C., 22 hours
Outline: as §1

[3] = Table 6, cation adjusted Mueller Hinton Broth + 0.002% Tween-80, 35° C.
[4] = Table 8, cation adjusted Mueller Hinton Broth + 0.002% Tween-80, 35° C.

Row | Compound | MIC [1, 3] [µM] | MIC ([2]; Table 6) [µM] | MIC [1, 4] [µM] | MIC ([2]; Table 8) [µM]
1 | CCCCCCc1ccc(C(=O)N[C@@H](CCN)C(=O)N(CC)[C@@H]2C(=O)N[C@@H](C)C(=O)N[C@H](C(=O)NCC#N)Cc3ccc(O)c(c3)-c3cc2ccc3O)c(C)c1 (racemic) [Compound 473, rac-(8S,11S,14S)-N-(cyanomethyl)-14-[ethyl-[rac-(2S)-4-amino-2-[(4-hexyl-2-methyl-benzoyl)amino]butanoyl]amino]-3,18-dihydroxy-11-methyl-10,13-dioxo-9,12-diazatricyclo[13.3.1.12,6]icosa-1(18),2(20),3,5,15(19),16-hexaene-8-carboxamide] | 4.9 | 0.31 | – | –
2 | Cc1nc(-c2ccc(C(C)(C)C)cc2)nc(C)c1C(=O)N[C@@H](CCN)C(=O)N(C)[C@@H]1C(=O)N[C@@H](C)C(=O)N[C@H](C(=O)O)Cc2ccc(O)c(c2)-c2cc1ccc2OCCN (racemic) [Compound 646, rac-(8S,11S,14S)-18-(2-aminoethoxy)-3-hydroxy-11-methyl-14-[methyl-[rac-(2S)-4-amino-2-[[2-(4-tert-butylphenyl)-4,6-dimethyl-pyrimidine-5-carbonyl]amino]butanoyl]amino]-10,13-dioxo-9,12-diazatricyclo [13.3.1.12,6]icosa-1(18),2(20),3,5,15(19), 16-hexaene-8-carboxylic acid] | – | – | 0.37 | 1.1
3 | Cc1nc(-c2ccc3c(c2)OCCC3(C)C)nc(C)c1C(=O)N[C@@H](CCN)C(=O)N(C)[C@@H]1C(=O)N[C@@H](C)C(=O)N[C@H](C(=O)NCC#N)Cc2ccc(OCCN)c(c2)-c2cc1ccc2OCCN (racemic) [Compound 271, rac-(8S,11S,14S)-3,18-bis(2-aminoethoxy)-N-(cyanomethyl)-11-methyl-14-[methyl-[rac-(2S)-4-amino-2-[[2-(4,4-dimethylchroman-7-yl)-4,6-dimethyl-pyrimidine-5-carbonyl]amino]butanoyl]amino]-10,13-dioxo-9,12-diazatricyclo[13.3.1.12,6]icosa-1(18),2(20),3,5,15(19),16-hexaene-8-carboxamide] | 0.26 | 0.032 | – | –
4 | Cc1nc(-c2ccc(N3CCCCC3)cc2)nc(C)c1C(=O)N[C@@H](CCN)C(=O)N(C)[C@@H]1C(=O)N[C@@H](C)C(=O)N[C@H](C(=O)NCC#N)Cc2ccc(OCCN)c(c2)-c2cc1ccc2OCCN (racemic) [Compound 324, rac-(8S,11S,14S)-3,18-bis(2-aminoethoxy)-N-(cyanomethyl)-11-methyl-14-[methyl-[rac-(2S)-4-amino-2-[[4,6-dimethyl-2-[4-(1-piperidyl)phenyl]pyrimidine-5-carbonyl]amino]butanoyl]amino]-10,13-dioxo-9,12-diazatricyclo[13.3.1.12,6]icosa-1(18),2(20),3,5,15(19),16-hexaene-8-carboxamide] | 0.13 | 0.047 | – | –
5 | Cc1nc(-c2ccc3c(c2)CCC3(C)C)nc(C)c1C(=O)N[C@@H](CCN)C(=O)N(C)[C@@H]1C(=O)N[C@@H](C)C(=O)N[C@H](C(=O)O)Cc2ccc(OCCN)c(c2)-c2cc1ccc2OCCN (racemic) [Compound 647, rac-(8S,11S,14S)-3,18-bis(2-aminoethoxy)-11-methyl-14-[methyl-[rac-(2S)-4-amino-2-[[2-(1,1-dimethylindan-5-yl)-4,6-dimethyl-pyrimidine-5-carbonyl]amino]butanoyl]amino]-10,13-dioxo-9,12-diazatricyclo [13.3.1.12,6]icosa-1(18),2(20),3,5,15(19), 16-hexaene-8-carboxylic acid] | – | – | 0.25 | 0.19

Second part, the compound after the results:

Row | MIC [1, 3] [µM] | MIC ([2]; Table 6) [µM] | MIC [1, 4] [µM] | MIC ([2]; Table 8) [µM] | Compound
6 | 0.11 | 0.0085 | – | – | Cc1nc(-c2ccc(C(C)(C)C)cc2)ncc1C(=O)N[C@@H](CCN)C(=O)N[C@@H]1C(=O)N[C@@H](C)C(=O)N[C@H](C(=O)NCC#N)Cc2ccc(OCCN)c(c2)-c2cc1ccc2OCCN (racemic) [Compound 472, rac-(8S,11S,14S)-3,18-bis(2-aminoethoxy)-N-(cyanomethyl)-11-methyl-10,13-dioxo-14-[[rac-(2S)-4-amino-2-[[2-(4-tert-butylphenyl)-4-methyl-pyrimidine-5-carbonyl]amino]butanoyl]amino]-9,12-diazatricyclo[13.3.1.12,6]icosa-1(18),2(20),3,5,15(19),16-hexaene-8-carboxamide]
7 | 0.75 | 0.13 | – | – | CNc1cc(C(=O)N[C@@H](CCN)C(=O)N(C)[C@@H]2C(=O)N[C@@H](C)C(=O)N[C@H](C(=O)NCC#N)Cc3ccc(OCCN)c(c3)-c3cc2ccc3OCCN)c(C)nc1-c1ccc(C(C)(C)C)cc1 (racemic) [Compound 409, rac-(8S,11S,14S)-3,18-bis(2-aminoethoxy)-N-(cyanomethyl)-11-methyl-14-[methyl-[rac-(2S)-4-amino-2-[[6-(4-tert-butylphenyl)-2-methyl-5-(methylamino)pyridine-3-carbonyl]amino]butanoyl]amino]-10,13-dioxo-9,12-diazatricyclo[13.3.1.12,6]icosa-1(18),2(20),3,5,15(19),16-hexaene-8-carboxamide]
8 | 0.38 | 0.016 | – | – | Cc1nc(-c2ccc(C(C)(C)C)cc2)nc(C(C)C)c1C(=O)N[C@@H](CCN)C(=O)N(C)[C@@H]1C(=O)N[C@@H](C)C(=O)N[C@H](C(=O)NCC#N)Cc2ccc(OCCN)c(c2)-c2cc1ccc2OCCN [Compound 487]
9 | 3.2 | 0.26 | – | – | Cc1nc(-c2ccc(C(C)(C)C)cc2)ncc1C(=O)N[C@@H](CCN)C(=O)N(C)[C@@H]1C(=O)N[C@@H](CO)C(=O)N[C@H](C(=O)NCC#N)Cc2ccc(OCCN)c(c2)-c2cc1ccc2OCCN (racemic) [Compound 477, rac-(8S,11S,14S)-3,18-bis(2-aminoethoxy)-N-(cyanomethyl)-11-(hydroxymethyl)-14-[methyl-[rac-(2S)-4-amino-2-[[2-(4-tert-butylphenyl)-4-methyl-pyrimidine-5-carbonyl]amino]butanoyl]amino]-10,13-dioxo-9,12-diazatricyclo[13.3.1.12,6]icosa-1(18),2(20),3,5,15(19),16-hexaene-8-carboxamide]
10 | 0.099 | 0.0082 | – | – | CC(C)=Cc1ccc(-c2nc(C)c(C(=O)N[C@@H](CCN)C(=O)N(C)[C@@H]3C(=O)N[C@@H](C)C(=O)N[C@H](C(=O)NCC#N)Cc4ccc(OCCN)c(c4)-c4cc3ccc4OCCN)c(C)n2)cc1 (racemic) [Compound 273, rac-(8S,11S,14S)-3,18-bis(2-aminoethoxy)-N-(cyanomethyl)-11-methyl-14-[methyl-[rac-(2S)-4-amino-2-[[4,6-dimethyl-2-[4-(2-methylprop-1-enyl)phenyl]pyrimidine-5-carbonyl]amino]butanoyl]amino]-10,13-dioxo-9,12-diazatricyclo[13.3.1.12,6]icosa-1(18),2(20),3,5,15(19),16-hexaene-8-carboxamide]
11 | 0.38 | 0.023 | – | – | Cc1nc2ccc(Oc3ccc(C(C)(C)C)cc3)cc2cc1C(=O)N[C@@H](CCN)C(=O)N(C)[C@@H]1C(=O)N[C@@H](C)C(=O)N[C@H](C(=O)NCC#N)Cc2ccc(OCCN)c(c2)-c2cc1ccc2OCCN (racemic) [Compound 397, rac-(8S,11S,14S)-3,18-bis(2-aminoethoxy)-N-(cyanomethyl)-11-methyl-14-[methyl-[rac-(2S)-4-amino-2-[[6-(4-tert-butylphenoxy)-2-methyl-quinoline-3-carbonyl]amino]butanoyl]amino]-10,13-dioxo-9,12-diazatricyclo[13.3.1.12,6]icosa-1(18),2(20),3,5,15(19),16-hexaene-8-carboxamide]
